Several values for one entry are separate records, joined by “and”; a condition that tells them apart may be missing. Equal values may be shown once. Entries after “also recorded” stand apart in the source; their conditions may differ. Marks after values point to notes of the source that are not given here.
Assay: Toxicity assessment (CTCAE version 4): treatment-related AEs, DLTs, dose reductions, RP2D; phase 1 NANT2015-02
Conditions: for Toxicity Maximum Grade per patient: Sinus tachycardia / Toxicity Maximum Grade per patient: Neutrophil count decreased: CTCAE grade; for Agitation: Toxicity Maximum Grade per patient / Anxiety: Toxicity Maximum Grade per patient / Cognitive disturbance: Toxicity Maximum Grade per patient / Concentration impairment: Toxicity Maximum Grade per patient / Depression: Toxicity Maximum Grade per patient / Hallucinations: Toxicity Maximum Grade per patient / Headache: Toxicity Maximum Grade per patient / Memory impairment: Toxicity Maximum Grade per patient: neurotoxicity
Procedure: Five DLs (45, 60, 75, 95 and 115 mg/m^2/dose) were assessed in A1, using a 3 + 3 design. […] Myeloid growth factor was given 24 hours after the completion of topotecan/cyclophosphamide on B2, according to institutional standards. Instructions and hands-on training for a tablet dispersion formulation, validated by Pfizer, was provided to families of patients who could not swallow tablets.
Initially, this was the only DL planned, but, with a subsequent amendment, a second DL was added to cohort A2 (150 mg). […] Finally, because of the nature of the patients in cohort A2 (which had only two planned DLs), an expansion of up to six additional patients was planned for the highest DL tested with zero or one DLT in six DLT-evaluable patients. Accrual could continue in the expansion cohort as long as none, or at most one, of the patients experienced DLT in the DLT observation period; if two or more patients experienced DLT in the DLT observation period, this would lead to a discussion of the suitability of this dose. The probability of observing […] with DLT, out of six patients, is 0.11, 0.22, 0.47, 0.68 and 0.77 when the true probability of DLT is 0.10, 0.15, 0.25, 0.35 and 0.40, respectfully.
Patients who were not evaluable for DLT were replaced for dose-escalation purposes. […] The MTD was defined as the highest DL tested at which zero of six or one of six patients experience DLT. After determination of the MTD and review of all toxicities, and provided that other safety considerations were acceptable, the MTD was labeled the RP2D.
Toxicity was graded according to CTCAE version 4. DLT definitions included only toxicities deemed at least possibly related to therapy. For A1 and A2, hematologic DLT was defined as grade 4 thrombocytopenia or grade 4 neutropenia >7-day duration or a delay in the start of subsequent course by more than 14 days due to ongoing thrombocytopenia or neutropenia, in the absence of bone marrow disease progression seen on clinically indicated bone marrow biopsy (if performed). For cohort B2, hematological DLT is defined as a delay in the start of subsequent course by more than 14 days due to ongoing thrombocytopenia or neutropenia, in the absence of bone marrow disease progression seen on clinically indicated bone marrow biopsy after the first dose reduction of cyclophosphamide and topotecan. Non-hematologic DLT was defined as any non-hematologic toxicity that delayed the start of a subsequent cycle by more than 14 days or any grade ≥3 toxicity, with the exception of the following grade 3 toxicities: nausea, vomiting, anorexia or dehydration resolving to grade ≤2 within 72 hours; increase in hepatic transaminase or electrolyte abnormality resolving eligibility levels within 7 days; diarrhea persisting for less than 72 hours; fever; infection; febrile neutropenia; high cholesterol or triglycerides if responsive (to ≤grade 2) with statin treatment; weight gain; and hyperglycemia if responsive (to <grade 2) with dietary modification.

[1] = Cohort A1, one line per patient (PID)
[2] = Cohort A2, one line per patient (PID)
[3] = patients <18 years, single agent
[4] = single-agent lorlatinib across all ages, grade 1–4 treatment-related

## C[C@H]1Oc2cc(cnc2N)-c2c(nn(C)c2C#N)CN(C)C(=O)c2ccc(F)cc21 [Lorlatinib, (10R)-7-amino-12-fluoro-2,10,16-trimethyl-15-oxo-10,15,16,17-tetrahydro-2H-8,4-(metheno)pyrazolo[4,3-h][2,5,11]-benzoxadiazacyclotetradecine-3-carbonitrile]
<18 years (cohorts A1 and B2), two of 33
  patients developing grade 2 CNS effects: 6%
<18 years, lorlatinib monotherapy
  patients requiring a dose reduction: 9%
A1 (< 18 yrs), DL 5 (115 mg/m^2)
  CNS DLT (CTCAE V4): Grade 2 hallucination/insomnia
A1, DL5 (115 mg/m^2), course 1
  DLT: YES
  Toxicity reason for Dose reduction: Grade 3 Diarrhea (lactose intolerance)
A1, DL5 (115 mg/m^2), course 3
  DLT: Delayed DLT
  Toxicity reason for Dose reduction: Grade 2 Hallucination/insomnia^1
A2 (≥ 18 yrs), 100 mg
  CNS DLT (CTCAE V4): Grade 2 memory impairment
A2 (≥ 18 yrs), 150 mg
  CNS DLT (CTCAE V4): Grade 2-4 hallucinations, delusions, suicidal ideations; also recorded: Grade 3 agitation^g; also recorded: Grade 4 Mania
A2, 100 mg, course 3
  DLT: Delayed DLT^2
  Toxicity reason for Dose reduction: Grade 3 Hyperglycemia
A2, 100 mg, course 7
  DLT: Delayed DLT
  Toxicity reason for Dose reduction: Grade 2 Memory impairment
A2, 150 mg, course 2
  DLT: YES
  Toxicity reason for Dose reduction: Grade 2-4 Delusions, psychosis, suicide attempt^3
A2, 150 mg, course 2 (second patient)
  DLT: YES
A2, 150 mg, course 3
  Toxicity reason for Dose reduction: Grade 2 Lower extremity edema^5
A2, 150 mg, course 4
  DLT: Delayed DLT
  Toxicity reason for Dose reduction: Grade 2 Peripheral neuropathy/edema
A2, 150 mg, course 5
  Toxicity reason for Dose reduction: Grade 2 Peripheral neuropathy^6
B2 (< 18yrs), DL 5 (115 mg/m^2)
  CNS DLT (CTCAE V4): Grade 2 anxiety, depression, somnolence, hypersomnia
B2, DL5 (115 mg/m^2), course 3
  DLT: Delayed DLT
  Toxicity reason for Dose reduction: Grade 2 anxiety, depression, somnolence, hypersomnia
Cohort A1, DL1 (45 mg/m^2)
  Patients with DLT in course 1: 0
  Patients with DLT in course 2: 0
  Patients with DLT in other courses: 0
Cohort A1, DL2 (60 mg/m^2)
  Patients with DLT in course 1: 0
  Patients with DLT in course 2: 0
  Patients with DLT in other courses: 0
Cohort A1, DL3 (75 mg/m^2)
  Patients with DLT in course 1: 0
  Patients with DLT in course 2: 0
  Patients with DLT in other courses: 0
Cohort A1, DL4 (95 mg/m^2)
  Patients with DLT in course 1: 0
  Patients with DLT in course 2: 0
  Patients with DLT in other courses: 0
Cohort A1, DL5 (115 mg/m^2)
  Patients with DLT in course 1: 1^b
  Patients with DLT in course 2: 0
  Patients with DLT in other courses: 1^b
Cohort A1, patient PID 9
  Toxicity Maximum Grade per patient: Sinus tachycardia: 2
Cohort A1, patient PID 17
  Toxicity Maximum Grade per patient: Sinus tachycardia: 1
Cohort A1, patient PID 18
  Toxicity Maximum Grade per patient: Sinus tachycardia: 1
Cohort A1, patient PID 21
  Toxicity Maximum Grade per patient: Neutrophil count decreased: 2
Cohort A1, patient PID 31
  Toxicity Maximum Grade per patient: Neutrophil count decreased: 3
Cohort A1, grade 1-4 in c1-c4
  Amnesia (CNS effect): 0 (0)
  Confusion (CNS effect): 0 (0)
  Delirium (CNS effect): 0 (0)
  Delusions (CNS effect): 0 (0)
  Dysarthria (CNS effect): 0 (0)
  Euphoria (CNS effect): 0 (0)
  Hypersomnia (CNS effect): 0 (0)
  Mania (CNS effect): 0 (0)
  Paresthesia (CNS effect): 0 (0)
  Restlessness (CNS effect): 0 (0)
  Somnolence (CNS effect): 0 (0)
  Stuttering (CNS effect): 0 (0)
  Suicidal ideation (CNS effect): 0 (0)
[1]
  Agitation: Toxicity Maximum Grade per patient: 1
  Anxiety: Toxicity Maximum Grade per patient: 1
  Cognitive disturbance: Toxicity Maximum Grade per patient: 1
  Concentration impairment: Toxicity Maximum Grade per patient: 1
  Depression: Toxicity Maximum Grade per patient: 1
  Hallucinations: Toxicity Maximum Grade per patient: 2
  Headache: Toxicity Maximum Grade per patient: 1
  Memory impairment: Toxicity Maximum Grade per patient: 1
  Alanine aminotransferase increased: Toxicity Maximum Grade per patient: 1 and 2
  Alkaline phosphatase increased: Toxicity Maximum Grade per patient: 1 and 2
  Anemia: Toxicity Maximum Grade per patient: 2 and 1 and 3
  Aspartate aminotransferase increased: Toxicity Maximum Grade per patient: 1 and 3 and 2
  Cholesterol high: Toxicity Maximum Grade per patient: 2 and 1 and 3
  Creatinine increased: Toxicity Maximum Grade per patient: 1
  Diarrhea: Toxicity Maximum Grade per patient: 1 and 3
  Edema limbs: Toxicity Maximum Grade per patient: 1
  Electrocardiogram QT corrected interval prolonged: Toxicity Maximum Grade per patient: 1
  Fatigue: Toxicity Maximum Grade per patient: 1
  Flatulence: Toxicity Maximum Grade per patient: 2 and 1
  Gastroesophageal reflux disease: Toxicity Maximum Grade per patient: 2
  Hyperglycemia: Toxicity Maximum Grade per patient: 1 and 3
  Hypertriglyceridemia: Toxicity Maximum Grade per patient: 1 and 2 and 3
  INCREASED APPETITE: Toxicity Maximum Grade per patient: 1
  Irritability: Toxicity Maximum Grade per patient: 1
  Lymphocyte count decreased: Toxicity Maximum Grade per patient: 1 and 3
  Nausea: Toxicity Maximum Grade per patient: 1
  Neutrophil count decreased: Toxicity Maximum Grade per patient: 2
  Peripheral sensory neuropathy: Toxicity Maximum Grade per patient: 2 and 1
  Platelet count decreased: Toxicity Maximum Grade per patient: 1
  Tinnitus: Toxicity Maximum Grade per patient: 1
  Vomiting: Toxicity Maximum Grade per patient: 1
  Weight gain: Toxicity Maximum Grade per patient: 2 and 3 and 1
  White blood cell decreased: Toxicity Maximum Grade per patient: 1 and 3
Cohort A2, 100 mg
  Patients with DLT in course 1: 0
  Patients with DLT in course 2: 0
  Patients with DLT in other courses: 2^c
Cohort A2, 150 mg
  Patients with DLT in course 1: 1^d
  Patients with DLT in course 2: 2^e,f
  Patients with DLT in other courses: 3^e,f,g
Cohort A2, patient PID 8
  Toxicity Maximum Grade per patient: Sinus tachycardia: 1
Cohort A2, grade 1-2, 3, 4 in c8-c10
  Neutrophil count decreased: 0 (0) n (%)
Cohort A2, grade 1-4 in c5-c8
  Hypersomnia (CNS effect): 0 (0)
[2]
  Agitation: Toxicity Maximum Grade per patient: 4 and 3 and 1
  Anxiety: Toxicity Maximum Grade per patient: 4 and 3 and 2 and 1
  Cognitive disturbance: Toxicity Maximum Grade per patient: 1 and 2
  Concentration impairment: Toxicity Maximum Grade per patient: 1 and 2 and 3
  Depression: Toxicity Maximum Grade per patient: 1 and 3
  Hallucinations: Toxicity Maximum Grade per patient: 1 and 4
  Headache: Toxicity Maximum Grade per patient: 1
  Memory impairment: Toxicity Maximum Grade per patient: 1 and 2 and 3
  Alanine aminotransferase increased: Toxicity Maximum Grade per patient: 1 and 2
  Alkaline phosphatase increased: Toxicity Maximum Grade per patient: 1
  Anemia: Toxicity Maximum Grade per patient: 3 and 1 and 2
  Aspartate aminotransferase increased: Toxicity Maximum Grade per patient: 1 and 2
  Cholesterol high: Toxicity Maximum Grade per patient: 2 and 3 and 1
  Creatinine increased: Toxicity Maximum Grade per patient: 1 and 2
  Diarrhea: Toxicity Maximum Grade per patient: 2 and 1
  Edema limbs: Toxicity Maximum Grade per patient: 1 and 2
  Electrocardiogram QT corrected interval prolonged: Toxicity Maximum Grade per patient: 1
  Fatigue: Toxicity Maximum Grade per patient: 1
  Flatulence: Toxicity Maximum Grade per patient: 1
  Gastroesophageal reflux disease: Toxicity Maximum Grade per patient: 2 and 1
  Hyperglycemia: Toxicity Maximum Grade per patient: 1 and 3
  Hypertriglyceridemia: Toxicity Maximum Grade per patient: 3 and 2 and 1
  INCREASED APPETITE: Toxicity Maximum Grade per patient: 1 and 2
  Irritability: Toxicity Maximum Grade per patient: 4
  Lymphocyte count decreased: Toxicity Maximum Grade per patient: 4 and 1
  Nausea: Toxicity Maximum Grade per patient: 1 and 2
  Peripheral sensory neuropathy: Toxicity Maximum Grade per patient: 3 and 2 and 1
  Platelet count decreased: Toxicity Maximum Grade per patient: 1 and 2
  Tinnitus: Toxicity Maximum Grade per patient: 1
  Vomiting: Toxicity Maximum Grade per patient: 1
  Weight gain: Toxicity Maximum Grade per patient: 2 and 1 and 3
  White blood cell decreased: Toxicity Maximum Grade per patient: 1 and 2
Cohort B2, DL4 (95 mg/m^2)
  Patients with DLT in course 1: 0
  Patients with DLT in course 2: 0
  Patients with DLT in other courses: 0
Cohort B2, DL5 (115 mg/m^2)
  Patients with DLT in course 1: 0
  Patients with DLT in course 2: 0
  Patients with DLT in other courses: 1^h
Cohort B2, grade 1-4 in c9-c12
  Amnesia (CNS effect): 0 (0)
  Delirium (CNS effect): 0 (0)
  Delusions (CNS effect): 0 (0)
  Depressed level of consciousness (CNS effect): 0 (0)
  Dizziness (CNS effect): 0 (0)
  Dysarthria (CNS effect): 0 (0)
  Euphoria (CNS effect): 0 (0)
  Mania (CNS effect): 0 (0)
  Paresthesia (CNS effect): 0 (0)
  Psychosis (CNS effect): 0 (0)
  Restlessness (CNS effect): 0 (0)
  Stuttering (CNS effect): 0 (0)
  Suicidal ideation (CNS effect): 0 (0)
adults, single agent
  incidence of peripheral neuropathy: 27%
In combination with topotecan/cyclophosphamide, patients <18 years, daily (DL5)
  RP2D: 115 mg/m^2
Lorlatinib combined with topotecan/cyclophosphamide, <18 years
  hypertriglyceridemia, patients with AE: 89%
[3]
  Grade 1–2 peripheral limb edema: 4%
  incidence of peripheral neuropathy: 13%
Patients ≥18 years, single agent
  Grade 1–2 peripheral limb edema: 47%
Single agent, 115 mg/m^2/dose daily
  RP2D <18 years relative to the adult RP2D: approximately 200%
Single agent, patients <18 years, daily (DL5)
  RP2D: 115 mg/m^2
Single agent, patients ≥18 years, daily
  RP2D: 150 mg
[4]
  hypercholesterolemia / elevated cholesterol, patients with AE: 79%
  hypertriglyceridemia, patients with AE: 90%
  weight gain, patients with AE: 87%
≥18 years (cohort A2), four of 15
  patients developing grade 2–4 CNS effects: 27%
≥18 years, 150 mg (n = 10)
  patients requiring dose reduction due to toxicities: 50%
